From patent US5122448A, “Assay of anti-Epstein-Barr virus nuclear antigen antibodies with synthetic polypeptides” (Scripps Clinic and Research Foundation, priority 1990, dated 1992)
Read-outs that look alike come from different tables or passages of the source. Residues, ends and D or L forms follow the SMILES beside them.

Assays:
[1] = tested on: anti-EBNA antibodies (IgG, IgM, IgA)
Method: Additional assays utilized in these studies wherein IgG to IgM ratios were determined to assess the state of EBV-induced disease were carried out as described in Smith et al., J. Infect. Dis., 154:885-889 (1986) and Geltosky et al., J. Clin Lab Analysis, 1:153-162 (1987).
The solution was thereafter discarded and the plates were blocked with 300 ul of 10 percent normal goat serum in phosphate-buffered saline (PBS) at pH 7.3. After 90 minutes of maintenance (incubation) at 37 degrees C., the wells were emptied and dried for 60 minutes at 37 degrees C.
At this time, 200 ul of 10 percent goat serum in PBS were added to the wells. A volume of 10 ul of patient specimen serum was admixed to each goat serum-containing well to form a solid/liquid phase admixture. That admixture was maintained for a time period of one hour at room temperature to permit binding of any antibodies present to the solid support and form a solid phase-bound immunoreactant containing those antibodies.
After washing five times with 350 ul of 0.05% Tween-20 [polyoxyethylene (20) sorbitan monolaurate] in PBS to effect separation of the solid and liquid phases, a solution of 200 ul of horseradish peroxidase-(HRPO-) conjugated mouse monoclonal antibody to human IgG or IgM (Ortho Diagnostic Systems, Raritan, N.J.) was admixed to each well to form a second solid/liquid phase admixture. This second solid/liquid admixture was maintained for another one hour time period to permit the enzyme-linked antibodies to bind to any solid phase-bound antibodies formed in the first solid/liquid phase admixture.
After separation of the solid and liquid phases, and washing of the solid phase five times using the Tween-20/PBS solution, above, color was developed by admixture of o-phenylenediamine (OPD; 2 mg of a citrate-buffered tablet dissolved in 3 ml of water; Pitman-Moore, Washington Crossing, N.J.) and hydrogen peroxide. The resulting solution was maintained for 30 minutes at room temperature. The reaction was stopped by admixture of 50 ul of 2N HCl, and the absorbance was determined at 490 nanometers (nm).
positive control ratio =reference absorbance value/mean absorbance of positive control.
The positive control was assigned a reference absorbance value (O.D.) of 1.0. […] The absorbance value for the controls and for each test specimen were multiplied by the positive control ratio to achieve a standardized ELISA value. Cutoff values (mean OD+SD) have been previously described [Geltosky et al. J. Clin. Lab. Analysis, 1:153-162 (1987)]. […] Absorbance values less than 0.7 were considered to represent an acute infection due to EBV [Smith et al., J Infect Dis., 154:885-889 (1986)].

[2] = tested on: anti-EBNA antibodies (IgM, IgG); settings: 405 nanometer
Text: To differentiate the class of immunoglobulin predominantly responsible for an individual's immune response at a given time during the course of infectious mononucleosis, secondary (indicating) antibodies specific for human IgG or IgM were used in the ELISA as described in the Methods and Materials section (III).
(§4) Briefly, microtiter wells (Costar, #3590, Cambridge, MA) were typically coated with individual polypeptides as antigens by adding 100 microliters (ul) of BBS [10 millimoler (mM) sodium borate (pH 8.3), 150 mM NaCl] containing polypeptide at a concentration of 10 micrograms per milliliter (ug/ml). Contact between the wells and antigen-containing solution was maintained for a predetermined time, typically 15 minutes, and at 20 degrees C., to form an antigen-coated solid phase. The solid and liquid phases were separated and the wells were washed three times with BBS.
(§5) Non-specific binding sites were blocked by admixing 200 microliters of 1% bovine serum albumin (BSA) in each well to form another solid/liquid phase admixture, and maintaining that solid/liquid phase admixture for 30 minutes, at 20 degrees C. The phases were separated and excess, unbound BSA was removed by washing three times with BBS.
(§6) The antibodies in human sera that immunoreacted with an adsored polypeptide were detected using an indicating means comprising alkaline phosphatase-conjugated goat anti-human Ig antibody (Tago, Burlington, Calif.). The antibodies in rabbit sera that immunoreacted with an adsorbed polypeptide were detected using an indicating means comprising alkaline phosphatase-conjugated goat anti-rabbit Ig antibody (Kirkegard & Perry Laboratories, Inc., Gaithersburg, MD). In either instance, 100 microliters of the indicating antibody diluted 1:300 in BBS were added per well to form a further solid/liquid phase composition. This solid-liquid phase composition was maintained for a predetermined time, one hour, for the formation of a reaction product between the human antibodies bound to the solid phase and the indicating means, and at 20 degrees C. The phases were separated, and the solid phase was washed 3 times with BBS.
(§7) Alkaline phosphatase-conjugated antibody bound to polypeptide specific antibody was detected by spectrophotometrically measuring the enzymatic hydrolysis of p-nitrophenyl phosphate to p-nitrophenol. Briefly, 100 microliters of p-nitrophenyl phosphate [1 milligram per milliliter in 2 mM MgCl 2, (pH 9.8), 50 mM sodium carbonate] were added to each well. The enzymatic reaction was allowed to proceed 1 hour and then the optical density at 405 nm was determined in a [sequence] spectrophotometer available from Flow Laboratories, Inglewood, Calif.

[3] = tested on: antibodies to EBNA-1 and autoantigens; settings: cited from earlier work
[4] = molecular target: human anti-EBNA antibodies; assay: ELISA: inhibition of serum antibody binding to solid phase P62 by competing polypeptide in solution
Method: (§1) Anti-peptide antibody binding and inhibition studies were carried out by an enzyme-linked immunosorbent assay (ELISA) as described below.
(§2) Contact between the wells and antigen-containing solution was maintained for a predetermined time, typically 15 minutes, and at 20 degrees C., to form an antigen-coated solid phase. The solid and liquid phases were separated and the wells were washed three times with BBS.
(§3) Rabbit and human sera (body sample aliquots) were assayed for anti-polypeptide activity by adding 100 microliters of a serum diluted 1:20 in BBS per well to form a solid/liquid phase composition. Contact between the diluted sera and the antigen-coated solid phase was maintained for a predetermined time such as 1 hour, and at 20 degrees C., for an immunoreactant to form. The solid and liquid phases were separated, and the solid phase; i.e., antigen-coated, immunoreactant-containing wells, was then washed three times with BBS.

[5] = tested on: anti-EBNA antibodies; assay: ELISA with polypeptide as solid phase antigen, anti-polypeptide activity of sera (OD405); assay type: binding, human; settings: for OD405 × 10^3 obtained with Patient Antibodies to peptide: serum 1:20
Method: as §4, §5, §6, §7

[6] = tested on: rabbit anti-polypeptide antibody to polypeptide P62; assay: Competition ELISA with rabbit anti-polypeptide P62 antibody on solid phase P62; assay type: binding; settings: antibody first incubated with competing polypeptide
Method: as §1, §2, §3

[7] = acute IM Patient 1, 1 days post onset
[8] = acute IM Patient 1, 29 days post onset
[9] = acute IM Patient 1, 95 days post onset
[10] = acute IM Patient 1, 184 days post onset
[11] = acute IM Patient 1, 373 days post onset
[12] = acute IM Patient 2, 17 days post onset
[13] = acute IM Patient 2, 28 days post onset
[14] = acute IM Patient 2, 68 days post onset
[15] = acute IM Patient 2, 194 days post onset
[16] = acute IM Patient 2, 404 days post onset
[17] = acute IM Patient 8, 8 days post onset
[18] = acute IM Patient 8, 38 days post onset
[19] = acute IM Patient 8, 109 days post onset
[20] = acute IM Patient 8, 404 days post onset
[21] = acute IM Patient 11, 2 days post onset
[22] = acute IM Patient 11, 23 days post onset
[23] = acute IM Patient 11, 372 days post onset
[24] = acute IM Patient 11, 1,519 days post onset
[25] = Patient 15, 1 Month after infection
[26] = Patient 15, 1 Week after infection
[27] = Patient 15, 3 Months after infection
[28] = Patient 15, 12 Months after infection
[29] = Patient 15, 21 Months after infection
[30] = Patient three, 1 Month after infection
[31] = Patient three, 1 Week after infection
[32] = Patient three, 3 Months after infection
[33] = Patient three, 21 Months after infection

In the case of `C[C@H](N)C(=O)NCC(=O)N[C@@H](C)C(=O)NCC(=O)NCC(=O)NCC(=O)N[C@@H](C)C(=O)NCC(=O)NCC(=O)N[C@@H](C)C(=O)NCC(=O)N[C@@H](C)C(=O)NCC(=O)NCC(=O)NCC(=O)N[C@@H](C)C(=O)NCC(=O)NCC(=O)N[C@@H](C)C(=O)NCC(=O)O` [Polypeptide P62, H--Ala--Gly--Ala--Gly--Gly--Gly--Ala--Gly--Gly--Ala--Gly--Ala--Gly--Gly--Gly--Ala--Gly--Gly--Ala--Gly--OH] (H-AGAGGGAGGAGAGGGAGGAG-OH), the “IgM anti-peptide P62 antibodies during acute phase of CMV disease” value ([1]; 10 patients with CMV-IM) is reported as “All 10 patients showed a pronounced increase”, the “Sera positive for NPC in IgA anti-P62 assay” value ([1]; 13 sera from NPC patients) is reported as 10 of 13 and the IgA level ([1]; Heterophil-Positive Sera marked with footnote 2 (samples 2 and 6)) is reported as > 0.300 OD 490. For the same molecule, the “IgG OD 490” value [1, 7] was 0.011 OD 490, the “IgM OD 490” value [1, 7] was 0.189 OD 490 and the “Ratio IgG/IgM” value [1, 7] was 0.058. For the same molecule, the “IgG OD 490” value [1, 8] was 0.023 OD 490, the “IgM OD 490” value [1, 8] was 0.527 OD 490 and the “Ratio IgG/IgM” value [1, 8] was 0.043. For the same molecule, the “IgG OD 490” value [1, 9] was 0.162 OD 490, the “IgM OD 490” value [1, 9] was 0.329 OD 490 and the “Ratio IgG/IgM” value [1, 9] was 0.492. The “IgG OD 490” value [1, 10] was 0.552 OD 490, the “IgM OD 490” value [1, 10] was 0.245 OD 490 and the “Ratio IgG/IgM” value [1, 10] was 2.253. The “IgG OD 490” value [1, 11] was 0.858 OD 490, the “IgM OD 490” value [1, 11] was 0.152 OD 490 and the “Ratio IgG/IgM” value [1, 11] was 5.644. The “IgG OD 490” value [1, 12] was 0.125 OD 490, the “IgM OD 490” value [1, 12] was 0.682 OD 490 and the “Ratio IgG/IgM” value [1, 12] was 0.183. For the same molecule, the “IgG OD 490” value [1, 13] was 0.167 OD 490, the “IgM OD 490” value [1, 13] was 0.674 OD 490 and the “Ratio IgG/IgM” value [1, 13] was 0.247. The “IgG OD 490” value [1, 14] was 0.112 OD 490, the “IgM OD 490” value [1, 14] was 0.459 OD 490 and the “Ratio IgG/IgM” value [1, 14] was 0.244. For the same molecule, the “IgG OD 490” value [1, 15] was 0.233 OD 490, the “IgM OD 490” value [1, 15] was 0.596 OD 490 and the “Ratio IgG/IgM” value [1, 15] was 0.390. The “IgG OD 490” value [1, 16] was 0.674 OD 490, the “IgM OD 490” value [1, 16] was 0.665 OD 490 and the “Ratio IgG/IgM” value [1, 16] was 1.013. For the same molecule, the “IgG OD 490” value [1, 17] was 0.319 OD 490, the “IgM OD 490” value [1, 17] was 1.046 OD 490 and the “Ratio IgG/IgM” value [1, 17] was 0.305. The “IgG OD 490” value [1, 18] was 0.165 OD 490, the “IgM OD 490” value [1, 18] was 0.696 OD 490 and the “Ratio IgG/IgM” value [1, 18] was 0.237. The “IgG OD 490” value [1, 19] was 0.141 OD 490, the “IgM OD 490” value [1, 19] was 0.603 OD 490 and the “Ratio IgG/IgM” value [1, 19] was 0.234. For the same molecule, the “IgG OD 490” value [1, 20] was 1.304 OD 490, the “IgM OD 490” value [1, 20] was 0.562 OD 490 and the “Ratio IgG/IgM” value [1, 20] was 2.320. For the same molecule, the “IgG OD 490” value [1, 21] was 0.005 OD 490, the “IgM OD 490” value [1, 21] was 0.055 OD 490 and the “Ratio IgG/IgM” value [1, 21] was 0.091. The “IgG OD 490” value [1, 22] was 0.016 OD 490, the “IgM OD 490” value [1, 22] was 0.702 OD 490 and the “Ratio IgG/IgM” value [1, 22] was 0.023. For the same molecule, the “IgG OD 490” value [1, 23] was 0.878 OD 490, the “IgM OD 490” value [1, 23] was 0.643 OD 490 and the “Ratio IgG/IgM” value [1, 23] was 1.365. For the same molecule, the “IgG OD 490” value [1, 24] was 1.079 OD 490, the “IgM OD 490” value [1, 24] was 0.199 OD 490 and the “Ratio IgG/IgM” value [1, 24] was 5.422. The IgG/IgM ratio ([1]; patient five (EBV-IM), May 1985 specimen, late convalescent phase) was “exceeded 0.7”, the IgG/IgM ratio ([1]; patient one (CMV-IM), during the acute illness) was 0.661 and the IgG/IgM ratio ([1]; patient one (CMV-IM), pre-illness samples) was ~2. For the same molecule, the “Patients scored positive in the EBNA P62 ELISA by the ratio analysis” value ([1]; ten patients with acute CMV-IM infection) was “eight of ten”, the IgG antipeptide activity [2, 25] was 118 Optical density and the IgM antipeptide activity [2, 25] was 225 Optical density. For the same molecule, the IgG antipeptide activity [2, 26] was 113 Optical density, the IgM antipeptide activity [2, 26] was 152 Optical density and the IgG antipeptide activity [2, 27] was 118 Optical density. It also gave an IgM antipeptide activity [2, 27] of 208 Optical density, an IgG antipeptide activity [2, 28] of 375 Optical density and an IgM antipeptide activity [2, 28] of 249 Optical density. The IgG antipeptide activity [2, 29] was 994 Optical density, the IgM antipeptide activity [2, 29] was 185 Optical density and the IgG antipeptide activity [2, 30] was 37 Optical density. For the same molecule, the IgM antipeptide activity [2, 30] was 87 Optical density, the IgG antipeptide activity [2, 31] was 80 Optical density and the IgM antipeptide activity [2, 31] was 245 Optical density. It also gave an IgG antipeptide activity [2, 32] of 60 Optical density, an IgM antipeptide activity [2, 32] of 136 Optical density and an IgG antipeptide activity [2, 33] of 600 Optical density. It also gave an IgM antipeptide activity [2, 33] of 145 Optical density, an IgG antipeptide activity ([2]; Patient three, Pre Infection) of 74 Optical density and an IgM antipeptide activity ([2]; Patient three, Pre Infection) of 103 Optical density. For the same molecule, the “Immunoreactivity with sera from patients with acute EBV infection” value [3] was “most immunoreactive”, the “Inhibition of IgG antibodies to EBNA-1” value [3] was “can also be inhibited” and the “Concentration of Competing Polypeptides Providing 50% Inhibition of Antibody Binding to Peptide P62” value ([4]; serum N6) was 0.6 micrograms per milliliter. For the same molecule, the “Concentration of Competing Polypeptides Providing 50% Inhibition of Antibody Binding to Peptide P62” value ([4]; serum TJ) was 0.05 micrograms per milliliter, the “Concentration of Competing Polypeptides Providing 50% Inhibition of Antibody Binding to Peptide P62” value ([4]; serum VM) was 0.3 micrograms per milliliter and the “Reactivity of sera of EBV non-immune donors to polypeptide” value ([5]; 27 EBV non-immune (VCA-) donors) was “None of the sera displayed significant reactivity”. For the same molecule, the “Number of anti-EBNA positive sera positive against (bound to) polypeptide” value ([5]; 91 ACIF anti-EBNA positive sera, 1:20 dilution) was 91, the “Number of EBNA positive sera that immunoreacted with polypeptide” value ([5]; 91 EBNA positive sera, dilution 1:320) was 83 and the “Titer of PSS patients versus normals” value ([5]; Progressive Systemic Schlerosis patients) was “relatively higher average titer”. For the same molecule, the “Reaction of VCA+ sera with polypeptide” value ([5]; clinically normal VCA+ individuals, two dilutions) was “all of the VCA^+ individuals were positive”, the “Reaction of VCA- sera with polypeptide” value ([5]; panel of 19 VCA- sera) was “None of the VCA^- sera were found to react positively” and the “OD405 × 10^3 obtained with Patient Antibodies to peptide” value (“OD405 × 10^3 obtained” below) ([5]; MV post-mononucleosis) was 631 OD405 × 10^3. The “OD405 × 10^3 obtained” value ([5]; MV pre-mononucleosis) was 77 OD405 × 10^3, the “OD405 × 10^3 obtained” value ([5]; SB post-mononucleosis) was 514 OD405 × 10^3 and the “OD405 × 10^3 obtained” value ([5]; SB pre-mononucleosis) was 13 OD405 × 10^3. The “OD405 × 10^3 obtained” value ([5]; VCA+ Normal 1) was 958 OD405 × 10^3, the “OD405 × 10^3 obtained” value ([5]; VCA+ Normal 2) was 819 OD405 × 10^3 and the “Inhibition of binding of anti-polypeptide P62 to polypeptide P62 in the solid phase” value [6] was 98%.
